Data as given in US8415380B2 (Hoffmann-La Roche Inc., priority 2007, dated 2013).
pKi: −log10 of the molar value.

Tests used:
[1] = biological target: T1, rat mGlu2 receptor (Rattus norvegicus, UniProt P31421); experiment: [3H]-LY354740 binding on mGlu2 transfected CHO cell membranes; conditions: 10 nM [3H]-LY354740, mGlu2 transfected CHO cell membranes, room temperature, 1 hour
T1 construct: expressed in transfected cells; membranes prepared
Text: [^3H]-LY354740 Binding on mGlu2 Transfected CHO Cell Membranes Transfection and Cell Culture
cDNA encoding the rat mGlu2 receptor protein in pBluescript II was subcloned into the eukaryotic expression vector pcDNA I-amp from Invitrogen Ltd (Paisley, UK). This vector construct (pcD1mGR^2) was co-transfected with a psvNeo plasmid encoding the gene for neomycin resistance, into CHO cells by a modified calcium phosphate method described by Chen & Okayama (1988). The cells were maintained in Dulbecco's Modified Eagle medium with reduced L-glutamine (1 mM final concentration), 36 mg/L L-Proline and 10% dialysed foetal calf serum from Gibco-Invitrogen; the medium was supplemented with 500 microM α-methyl-4-carboxyphenylglycine (MCPG). Selection was made in the presence of G-418 (300 ug/ml final concentration). Clones were identified by reverse transcription of 5 μg total RNA, followed by PCR using mGlu2 receptor specific primers 5′-[…]-3′ and 5′-[…]-3′ in 60 mM Tris HCl (pH 10), 15 mM (NH4)2SO4, 2 mM MgCl2, 25 units/ml Taq Polymerase with 30 cycles annealing at 60° C. for 1 min., extention at 72° C. for 30 s, and 1 min. 95° C. denaturation.
Cells, cultured as above, were harvested and washed three times with cold PBS and frozen at −80° C. The pellet was resuspended in cold 20 mM HEPES-NaOH buffer containing 10 mM EDTA (pH 7.4), and homogenised with a polytron (Kinematica, A G, Littau, Switzerland) for 10 s at 10 000 rpm. After centrifugation for 30 min. at 4° C., the pellet was washed once with cold 20 mM HEPES-NaOH buffer containing 0.1 mM EDTA, (pH 7.4). After a second centrifugation for 30 min. at 4° C. the pellet was resuspended in cold 20 mM HEPES-NaOH buffer containing 0.1 mM EDTA, (pH 7.4). Protein content was measured using the Micro BCA method from Pierce-Perbio (Rockford, Ill., USA) using bovine serum albumin as standard.
After thawing, the membranes were resuspended in cold 50 mM Tris-HCl buffer containing 2 mM MgCl2 (pH 7.4) (binding buffer). The final concentration of the membranes in the assays was 25 μg protein/ml. Inhibition experiments were performed with membranes incubated with 10 nM [^3H]-LY354740 at room temperature, for 1 hour, in presence of various concentrations of the compound to be tested. Following the incubations, membranes were filtered onto Whatmann GF/B glass fiber filters or onto GF/B Unifilter plates and washed 5 times with cold binding buffer. Non specific binding was measured in the presence of 10 μM (2S,2′R,3′R)-2-(2′3′-Dicarboxycyclopropyl)glycine (DCG IV from Tocris, Ellisville, Mo. USA). After transfer of the filters into plastic vials containing 10 ml of Ultima-gold scintillation fluid from Perkin-Elmer (Boston, Mass., USA), the radioactivity was measured by liquid scintillation in a Tri-Carb 2500 TR counter (Packard, Zurich, Switzerland). For 96-Unifilter plates the radioactivity was measured after addition of Microscint 40 scintillation fluid (Perkin Elmer, Boston Mass.) using a TopCount NXT (Packard)
The inhibition curves were fitted with a four parameter logistic equation giving IC50 values, and Hill coefficients.

T1 sequence (P31421 19-872): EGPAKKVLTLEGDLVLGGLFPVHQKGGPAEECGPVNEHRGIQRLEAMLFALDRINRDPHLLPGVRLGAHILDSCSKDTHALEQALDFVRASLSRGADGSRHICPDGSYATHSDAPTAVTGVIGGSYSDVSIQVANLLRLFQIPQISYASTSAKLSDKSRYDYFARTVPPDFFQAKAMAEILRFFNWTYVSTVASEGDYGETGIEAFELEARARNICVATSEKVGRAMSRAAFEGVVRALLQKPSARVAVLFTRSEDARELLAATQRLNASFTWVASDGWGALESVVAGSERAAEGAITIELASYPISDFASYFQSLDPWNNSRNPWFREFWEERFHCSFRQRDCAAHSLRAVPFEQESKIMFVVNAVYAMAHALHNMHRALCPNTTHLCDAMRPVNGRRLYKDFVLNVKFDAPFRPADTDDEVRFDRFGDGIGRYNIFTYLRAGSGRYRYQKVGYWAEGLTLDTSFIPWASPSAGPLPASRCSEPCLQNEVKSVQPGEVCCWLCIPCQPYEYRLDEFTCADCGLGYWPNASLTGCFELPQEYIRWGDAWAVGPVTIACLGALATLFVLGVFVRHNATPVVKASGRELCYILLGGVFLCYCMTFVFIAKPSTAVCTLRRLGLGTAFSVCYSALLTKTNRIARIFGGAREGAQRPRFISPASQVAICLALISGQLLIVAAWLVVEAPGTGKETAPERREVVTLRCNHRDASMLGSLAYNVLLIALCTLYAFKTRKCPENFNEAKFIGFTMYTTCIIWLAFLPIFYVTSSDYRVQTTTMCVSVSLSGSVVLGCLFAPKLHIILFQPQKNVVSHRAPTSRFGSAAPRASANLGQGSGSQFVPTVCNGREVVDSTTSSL

SMILES	pKi [1]	melting point
Nc1ccc(-c2cc(-c3nc(-c4ccc(C(F)(F)F)nc4)cc(C(F)(F)F)n3)ccn2)cn1 [Example 8, 4-[4-Trifluoromethyl-6-(6-trifluoromethyl-pyridin-3-yl)-pyrimidin-2-yl]-[2,3′]bipyridinyl-6′-ylamine]	7.81	261.5 °C
NS(=O)(=O)c1ccc(-c2cc(-c3nc(-c4ccc(C(F)(F)F)nc4)cc(C(F)(F)F)n3)ccn2)s1 [Example 10, 5-{4-[4-Trifluoromethyl-6-(6-trifluoromethyl-pyridin-3-yl)-pyrimidin-2-yl]-pyridin-2-yl}-thiophene-2-sulfonic acid amide]	8.18	262.5 °C
CCC(=O)NS(=O)(=O)c1cccc(-c2cc(-c3nc(-c4ccc(C(F)(F)F)nc4)cc(C(F)(F)F)n3)ccn2)c1 [Example 11, N-Propionyl-3-{4-[4-trifluoromethyl-6-(6-trifluoromethyl-pyridin-3-yl)-pyrimidin-2-yl]-pyridin-2-yl}-benzenesulfonamide]		242 °C
Nc1ccc(-c2cccc(-c3nc(-c4ccc(C(F)(F)F)nc4)cc(C(F)(F)F)n3)c2)cn1 [Example 12, 5-{3-[4-Trifluoromethyl-6-(6-trifluoromethyl-pyridin-3-yl)-pyrimidin-2-yl]-phenyl}-pyridin-2-ylamine]	8.48	244 °C
Nc1ccc(-c2cn(-c3nc(-c4ccc(C(F)(F)F)nc4)cc(C(F)F)n3)cn2)cn1 [Example 14, 5-{1-[4-Difluoromethyl-6-(6-trifluoromethyl-pyridin-3-yl)-pyrimidin-2-yl]-1H-imidazol-4-yl}-pyridin-2-ylamine]		258 °C
NS(=O)(=O)c1cccc(-c2cc(-c3nc(-c4ccc(C(F)(F)F)nc4)cc(C(F)F)n3)ccn2)c1 [Example 16, 3-{4-[4-Difluoromethyl-6-(6-trifluoromethyl-pyridin-3-yl)-pyrimidin-2-yl]-pyridin-2-yl}-benzenesulfonamide]		264.5 °C
NS(=O)(=O)c1ccc(-c2cccc(-c3nc(-c4ccc(C(F)(F)F)nc4)cc(C(F)F)n3)c2)s1 [Example 18, 5-{3-[4-Difluoromethyl-6-(6-trifluoromethyl-pyridin-3-yl)-pyrimidin-2-yl]-phenyl}-thiophene-2-sulfonic acid amide]		245.5 °C
Cc1cc(-c2ccc(C(F)(F)F)nc2)nc(-c2ccnc(-c3cccc(S(N)(=O)=O)c3)c2)n1 [Example 21, 3-{4-[4-Methyl-6-(6-trifluoromethyl-pyridin-3-yl)-pyrimidin-2-yl]-pyridin-2-yl}-benzenesulfonamide]		255 °C
Cc1cc(-c2ccc(C(F)(F)F)nc2)nc(-c2ccnc(-c3ccc(S(N)(=O)=O)s3)c2)n1 [Example 22, 5-{4-[4-Methyl-6-(6-trifluoromethyl-pyridin-3-yl)-pyrimidin-2-yl]-pyridin-2-yl}-thiophene-2-sulfonic acid amide]		289 °C
Cc1cc(-c2ccc(C(F)(F)F)cn2)nc(-c2cccc(-c3cccc(S(=O)(=O)NC(C)(C)C)c3)n2)n1 [Example 25]	6.98	
Cc1cc(-c2ccc(C(F)(F)F)cn2)nc(-c2cccc(-c3cccc(S(N)(=O)=O)c3)n2)n1 [Example 27, 3-{6-[4-Methyl-6-(5-trifluoromethyl-pyridin-2-yl)-pyrimidin-2-yl]-pyridin-2-yl}-benzenesulfonamide]		246 to 252 °C
Cc1cc(-c2ccc(C(F)(F)F)nc2)nc(-c2cccc(-c3cccc(S(N)(=O)=O)c3)n2)n1 [Example 28, 3-{6-[4-Methyl-6-(6-trifluoromethyl-pyridin-3-yl)-pyrimidin-2-yl]-pyridin-2-yl}-benzenesulfonamide]		254 °C
Cc1cc(-c2ccc(C(F)(F)F)nc2)cc(-c2cccc(-c3ccc(S(N)(=O)=O)s3)c2)n1 [Example 35, 5-[3-(6′-Methyl-6-trifluoromethyl-[3,4′]bipyridinyl-2′-yl)-phenyl]-thiophene-2-sulfonic acid amide]		231 to 233 °C

The remaining lines, values ahead:

pKi [1]	melting point	SMILES
7.94	189 °C	NS(=O)(=O)c1cccc(-c2cn(-c3nc(-c4ccc(Cl)s4)cc(C(F)(F)F)n3)cn2)c1 [Example 1, 3-{1-[4-(5-Chloro-thiophen-2-yl)-6-trifluoromethyl-pyrimidin-2-yl]-1H-imidazol-4-yl}-benzenesulfonamide]
8.74	211 °C	NS(=O)(=O)c1cccc(-c2cccc(-c3nc(-c4ccc(C(F)(F)F)nc4)cc(C(F)(F)F)n3)c2)c1 [Example 2, 3′-[4-Trifluoromethyl-6-(6-trifluoromethyl-pyridin-3-yl)-pyrimidin-2-yl]-biphenyl-3-sulfonic acid amide]
7.92	250.5 °C	NS(=O)(=O)c1ccc(-c2cccc(-c3nc(-c4ccc(C(F)(F)F)nc4)cc(C(F)(F)F)n3)c2)s1 [Example 3, 5-{3-[4-Trifluoromethyl-6-(6-trifluoromethyl-pyridin-3-yl)-pyrimidin-2-yl]-phenyl}-thiophene-2-sulfonic acid amide]
7.84	226.5 °C	NS(=O)(=O)c1cccc(-c2cccc(-c3nc(-c4ccc(Cl)s4)cc(C(F)(F)F)n3)c2)c1 [Example 4, 3′-[4-(5-Chloro-thiophen-2-yl)-6-trifluoromethyl-pyrimidin-2-yl]-biphenyl-3-sulfonic acid amide]
6.86	99 °C	Nc1ccc(-c2cccc(-c3nc(-c4ccc(Cl)s4)cc(C(F)(F)F)n3)c2)cn1 [Example 5, 5-{3-[4-(5-Chloro-thiophen-2-yl)-6-trifluoromethyl-pyrimidin-2-yl]-phenyl}-pyridin-2-ylamine]
	228 °C	Nc1ncc(-c2cccc(-c3nc(-c4ccc(Cl)s4)cc(C(F)(F)F)n3)c2)cn1 [Example 6, 5-{3-[4-(5-Chloro-thiophen-2-yl)-6-trifluoromethyl-pyrimidin-2-yl]-phenyl}-pyrimidin-2-ylamine]
	233 °C	NS(=O)(=O)c1ccc(-c2cccc(-c3nc(-c4ccc(Cl)s4)cc(C(F)(F)F)n3)c2)s1 [Example 7, 5-{3-[4-(5-Chloro-thiophen-2-yl)-6-trifluoromethyl-pyrimidin-2-yl]-phenyl}-thiophene-2-sulfonic acid amide]
8.28	258 °C	NS(=O)(=O)c1cccc(-c2cc(-c3nc(-c4ccc(C(F)(F)F)nc4)cc(C(F)(F)F)n3)ccn2)c1 [Example 9, 3-{4-[4-Trifluoromethyl-6-(6-trifluoromethyl-pyridin-3-yl)-pyrimidin-2-yl]-pyridin-2-yl}-benzenesulfonamide]
	222 °C	NS(=O)(=O)c1cccc(-c2cccc(-c3nc(-c4ccc(C(F)(F)F)nc4)cc(C(F)F)n3)c2)c1 [Example 15, 3′-[4-Difluoromethyl-6-(6-trifluoromethyl-pyridin-3-yl)-pyrimidin-2-yl]-biphenyl-3-sulfonic acid amide]
	220 °C	Cc1cc(-c2ccc(C(F)(F)F)nc2)nc(-c2cccc(-c3cccc(S(N)(=O)=O)c3)c2)n1 [Example 23, 3′-[4-Methyl-6-(6-trifluoromethyl-pyridin-3-yl)-pyrimidin-2-yl]-biphenyl-3-sulfonic acid amide]
	237.5 °C	Cc1cc(-c2ccc(C(F)(F)F)nc2)nc(-c2cccc(-c3ccc(S(N)(=O)=O)s3)c2)n1 [Example 24, 5-{3-[4-Methyl-6-(6-trifluoromethyl-pyridin-3-yl)-pyrimidin-2-yl]-phenyl}-thiophene-2-sulfonic acid amide]
	227 to 232 °C	Cc1cc(-c2ccc(C(F)(F)F)nc2)cc(-c2cccc(-c3cccc(S(N)(=O)=O)c3)c2)n1 [Example 34, 3′-(6′-Methyl-6-trifluoromethyl-[3,4′]bipyridinyl-2′-yl)-biphenyl-3-sulfonic acid amide]
